Reference: patent publication US11713335B2, “Aminocoumarin compounds and methods of their use” (President and Fellows of Harvard College, priority 2018, dated 2023)
Converted amounts (≈) assume the structure as drawn. Where two headings read alike, the source gives them in different places.

Key:
Format in all cases: cell-based
S. aureus RN4220 = assay: Minimal inhibitory concentration, S. aureus RN4220; settings: read-out: MIC (μM) S. aureus RN4220
How it was run: (§1)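 MICs (µM) correspond to the lowest concentration stopping bacterial growth, judged by visible-light absorbance at 600 nm following a 16 h static incubation at 37 °C. Compounds were titrated twofold into doubly 1:100-diluted saturated cultures.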

S. aureus MW2 = assay: Minimal inhibitory concentration, S. aureus MW2; settings: read-out: MIC (μM) S. aureus MW2 (MRSA)
How it was run: as §1

E. cloacae 13047 = assay: Minimal inhibitory concentration, E. cloacae 13047; settings: read-out: MIC (μM) E. cloacae 13047
How it was run: as §1

A. baumannii 19606 = assay: Minimal inhibitory concentration, A. baumannii 19606; settings: read-out: MIC (μM) A. baumannii 19606
How it was run: as §1

K. pneumoniae 700721 = assay: Minimal inhibitory concentration, K. pneumoniae 700721; settings: read-out: MIC (μM) K. pneumoniae 700721
How it was run: as §1

E. coli MC4100 = assay: Minimal inhibitory concentration, E. coli MC4100; settings: read-out: MIC (μM) E. coli MC4100 ara+
How it was run: as §1

E. coli 25922 = assay: Minimal inhibitory concentration, E. coli 25922; settings: read-out: MIC (μM) E. coli 25922
How it was run: as §1

[1] = Staphylococcus aureus, RN4220, 16 h, 16 hour minimal inhibitory concentration at 37° C.
[2] = Staphylococcus aureus, MRSA, 16 h, 16 hour minimal inhibitory concentration at 37° C.
[3] = Enterobacter cloacae, 13047, 16 hour minimal inhibitory concentration at 37° C.
[4] = Acinetobacter baumannii, 19606, 16 h, 16 hour minimal inhibitory concentration at 37° C.
[5] = Klebsiella pneumoniae, 700721, 16 hour minimal inhibitory concentration at 37° C.
[6] = Escherichia coli, MC4100, 16 h, 16 hour minimal inhibitory concentration at 37° C.
[7] = Escherichia coli, 25922, 16 h, 16 hour minimal inhibitory concentration at 37° C.
[8] = 16 hour minimal inhibitory concentration at 37° C.

Compound | MIC (S. aureus RN4220; [1]) | MIC (S. aureus MW2; [2]) | MIC (E. cloacae 13047; [3]) | MIC (A. baumannii 19606; [4]) | MIC (K. pneumoniae 700721; [5]) | MIC (E. coli MC4100; [6]) | MIC (E. coli 25922; [7]) | also measured
CO[C@@H]1[C@@H](OC(N)=O)[C@@H](O)[C@H](Oc2ccc3c(O)c(NC(=O)c4cccc(Oc5ccc(C)cc5)c4)c(=O)oc3c2C)OC1(C)C [Compound 221] | 10 µM (≈ 6.35 µg/mL) | 10 µM (≈ 6.35 µg/mL) | > 100 µM | > 50 µM | > 100 µM | 10 µM (≈ 6.35 µg/mL) | 5 µM (≈ 3.17 µg/mL) | –
CO[C@@H]1[C@@H](OC(N)=O)[C@@H](O)[C@H](Oc2ccc3c(O)c(NC(=O)c4ccccc4Br)c(=O)oc3c2C)OC1(C)C [Compound 231] | > 100 µM | > 100 µM | > 100 µM | > 50 µM | > 100 µM | > 200 µM | > 200 µM | –
COc1cccc(Oc2cccc(C(=O)Nc3c(O)c4ccc(O[C@@H]5OC(C)(C)[C@H](OC)[C@@H](OC(N)=O)[C@H]5O)c(C)c4oc3=O)c2)c1 [Compound 240] | 19.2 µM (≈ 12.5 µg/mL) | 19.2 µM (≈ 12.5 µg/mL) | > 100 µM | > 50 µM | > 100 µM | 4.5 µM (≈ 2.93 µg/mL) | 38 µM (≈ 24.7 µg/mL) | –
C#Cc1ccc(C(=O)Nc2c(O)c3ccc(O[C@@H]4OC(C)(C)[C@H](OC)[C@@H](OC(N)=O)[C@H]4O)c(C)c3oc2=O)cc1Oc1ccccc1 [Compound 257] | 5 µM (≈ 3.22 µg/mL) | 5 µM (≈ 3.22 µg/mL) | > 100 µM | > 50 µM | 71 µM (≈ 45.8 µg/mL) | 39 µM (≈ 25.1 µg/mL) | 19 µM (≈ 12.2 µg/mL) | –
COc1cccc(-c2cccc(C(=O)Nc3c(O)c4ccc(O[C@@H]5OC(C)(C)[C@H](OC)[C@@H](OC(N)=O)[C@H]5O)c(C)c4oc3=O)c2)c1 [Compound 103] | – | – | – | – | – | – | – | MIC (S. aureus RN4220; [8]): 36 µM (≈ 22.8 µg/mL); MIC (S. aureus MW2; [8]): 36 µM (≈ 22.8 µg/mL); MIC (E. cloacae 13047; [8]): >100 µM; MIC (A. baumannii 19606; [8]): 9 µM (≈ 5.71 µg/mL); MIC (K. pneumoniae 700721; [8]): >100 µM; MIC (E. coli MC4100; [8]): >200 µM; MIC (E. coli 25922; [8]): >200 µM
CO[C@@H]1[C@@H](OC(N)=O)[C@@H](O)[C@H](Oc2ccc3c(O)c(NC(=O)c4ccnc(Oc5ccccc5)c4)c(=O)oc3c2C)OC1(C)C [Compound 237] | > 100 µM | > 100 µM | > 100 µM | > 50 µM | > 100 µM | > 100 µM | > 200 µM | –
CO[C@@H]1[C@@H](O)[C@@H](OC(=O)c2cc(C)c(C)[nH]2)[C@H](Oc2ccc3c(O)c(NC(=O)c4ccc(O)c(CC=C(C)C)c4)c(=O)oc3c2C)OC1(C)C [Compound 214] | – | – | – | – | – | – | – | MIC (S. aureus RN4220; Staphylococcus aureus, RN4220, 16 h): 5 µM (≈ 3.45 µg/mL); MIC (S. aureus MW2; Staphylococcus aureus, MRSA, 16 h): 5 µM (≈ 3.45 µg/mL); MIC (E. cloacae 13047; Enterobacter cloacae, 13047, 16 h): > 100 µM; MIC (A. baumannii 19606; Acinetobacter baumannii, 19606, 16 h): > 50 µM; MIC (K. pneumoniae 700721; Klebsiella pneumoniae, 700721, 16 h): > 100 µM; MIC (E. coli MC4100; Escherichia coli, MC4100, 16 h): > 200 µM; MIC (E. coli 25922; Escherichia coli, 25922, 16 h): > 200 µM
CO[C@@H]1[C@@H](O)[C@@H](OC(=O)NC(C)(C)C)[C@H](Oc2ccc3c(O)c(NC(=O)c4ccc(O)c(CC=C(C)C)c4)c(=O)oc3c2C)OC1(C)C [Compound 106] | – | – | – | – | – | – | – | MIC (S. aureus RN4220; [8]): >100 µM; MIC (S. aureus MW2; [8]): >100 µM; MIC (E. cloacae 13047; [8]): >100 µM; MIC (A. baumannii 19606; [8]): >50 µM; MIC (K. pneumoniae 700721; [8]): >100 µM; MIC (E. coli MC4100; [8]): >200 µM; MIC (E. coli 25922; [8]): >200 µM
CO[C@@H]1[C@@H](OC(N)=O)[C@@H](O)[C@H](Oc2ccc3c(O)c(NC(=O)c4cccc(Nc5ccccc5)c4)c(=O)oc3c2C)OC1(C)C [Compound 218] | 10 µM (≈ 6.2 µg/mL) | 10 µM (≈ 6.2 µg/mL) | > 100 µM | > 50 µM | > 100 µM | 80 µM (≈ 49.6 µg/mL) | 161 µM (≈ 99.8 µg/mL) | –
CO[C@@H]1[C@@H](OC(N)=O)[C@@H](O)[C@H](Oc2ccc3c(O)c(NC(=O)c4cccc(CN)c4)c(=O)oc3c2C)OC1(C)C [Compound 206] | > 100 µM | > 100 µM | > 100 µM | > 50 µM | > 100 µM | > 200 µM | > 200 µM | –
